Experimental data taken from PubChem BioAssay (NCI).
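Exposure lasted 48 hours, with cells grown in 96-well plates and compounds tested at five concentrations. TGI marks complete inhibition of growth.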

How the values were obtained:
Assay in all cases: NCI anticancer screen, dose series, 48 h
UACC-257 melanoma = tested on: UACC-257 melanoma
RPMI-8226 leukemia = tested on: RPMI-8226 leukemia
CAKI-1 renal = tested on: CAKI-1 renal
786-0 renal = tested on: 786-0 renal
BT-549 breast = tested on: BT-549 breast
SNB-19 CNS = tested on: SNB-19 CNS
RXF 393 renal = tested on: RXF 393 renal
SW-620 colon = tested on: SW-620 colon
COLO 205 colon = tested on: COLO 205 colon
SR leukemia = tested on: SR leukemia
MDA-N = tested on: MDA-N

Compound `CSc1c(C#N)c(N)nc2c(N=Nc3ccc(Br)cc3)c(N)nn12` has a TGI (UACC-257 melanoma) of 21.4 µM, a TGI (RPMI-8226 leukemia) of 54.7 µM and a TGI (CAKI-1 renal) of 26 µM. It also gave a TGI (786-0 renal) of 11.3 µM, a TGI (BT-549 breast) of 37.3 µM and a TGI (SNB-19 CNS) of 69.6 µM. It also gave a TGI (RXF 393 renal) of 21 µM, a TGI (SW-620 colon) of 12.7 µM and a TGI (COLO 205 colon) of 25.1 µM. For the same compound, the TGI (SR leukemia) was 6.76 µM and the TGI (MDA-N) was 18.8 µM.

With `CC1=NN(C(=O)CC(=O)Nc2ccccc2Cl)C(=O)C1N=Nc1ccc(S(=O)(=O)c2ccc(N=NC3C(=O)N(C(=O)CC(=O)Nc4ccccc4Cl)N=C3C)cc2)cc1` (stereo unspecified) the TGI (UACC-257 melanoma) was > 100 µM, the TGI (RPMI-8226 leukemia) was > 100 µM and the TGI (CAKI-1 renal) was > 100 µM. The TGI (786-0 renal) was > 100 µM, the TGI (BT-549 breast) was > 100 µM and the TGI (SNB-19 CNS) was > 100 µM. For the same compound, the TGI (RXF 393 renal) was > 100 µM, the TGI (SW-620 colon) was > 100 µM and the TGI (COLO 205 colon) was > 100 µM. For the same compound, the TGI (SR leukemia) was > 100 µM and the TGI (MDA-N) was > 100 µM.

In the case of `COC(=O)C1=C(OC(=O)/C=C/c2ccccc2)C(C(=O)OC)[C@@]2(O)[C@@H](C(=O)OC)[C@H](C)C[C@@H]1[C@@H]2C(=O)OC` (stereo partly specified), the TGI (UACC-257 melanoma) is reported as 90.9 µM, the TGI (RPMI-8226 leukemia) is reported as > 100 µM and the TGI (CAKI-1 renal) is reported as 32.6 µM. For the same compound, the TGI (786-0 renal) was 50 µM, the TGI (BT-549 breast) was 56.1 µM and the TGI (SNB-19 CNS) was > 100 µM. For the same compound, the TGI (RXF 393 renal) was 34.1 µM, the TGI (SW-620 colon) was > 100 µM and the TGI (COLO 205 colon) was 74.8 µM. For the same compound, the TGI (SR leukemia) was > 100 µM and the TGI (MDA-N) was > 100 µM.

For `CC12CC3OC(=O)C1COC14OC5(C2C1=O)C(O)(CCC1C4CC2OC24CC=CC(=O)C14C)C(=O)OC35C` (stereo unspecified), the TGI (UACC-257 melanoma) was 39.4 µM, the TGI (RPMI-8226 leukemia) was 71.4 µM and the TGI (CAKI-1 renal) was 25.8 µM. The TGI (786-0 renal) was 28.7 µM, the TGI (BT-549 breast) was 9.66 µM and the TGI (SNB-19 CNS) was 44.9 µM. The TGI (RXF 393 renal) was 13.4 µM, the TGI (SW-620 colon) was 34.5 µM and the TGI (COLO 205 colon) was 22.1 µM. The TGI (SR leukemia) was 48.3 µM and the TGI (MDA-N) was 29.4 µM.

With `CSc1cc(-c2ccccn2)nc(-c2ccccn2)c1` the TGI (UACC-257 melanoma) was 15.3 µM, the TGI (RPMI-8226 leukemia) was > 100 µM and the TGI (CAKI-1 renal) was 1.81 µM. The TGI (786-0 renal) was 11.4 µM, the TGI (BT-549 breast) was 6.07 µM and the TGI (SNB-19 CNS) was > 50.5 µM. It also gave a TGI (RXF 393 renal) of 4.47 µM, a TGI (SW-620 colon) of 16.6 µM and a TGI (COLO 205 colon) of 7.29 µM. The TGI (SR leukemia) was > 100 µM and the TGI (MDA-N) was 16 µM.

In the case of `NNc1nncc2[nH]cnc12`, the TGI (UACC-257 melanoma) is reported as > 100 µM, the TGI (RPMI-8226 leukemia) is reported as > 100 µM and the TGI (CAKI-1 renal) is reported as > 100 µM. The TGI (786-0 renal) was > 100 µM, the TGI (BT-549 breast) was > 100 µM and the TGI (SNB-19 CNS) was > 100 µM. The TGI (RXF 393 renal) was > 100 µM, the TGI (SW-620 colon) was > 100 µM and the TGI (COLO 205 colon) was > 100 µM. For the same compound, the TGI (SR leukemia) was > 100 µM and the TGI (MDA-N) was > 100 µM.
